Experimental data published in ChEMBL document CHEMBL1156829 (Proc Natl Acad Sci U S A, 2008).

Columns and labels:
[1] = test system: Plasmodium falciparum; experiment: NOVARTIS: Inhibition of Plasmodium falciparum W2 (drug-resistant) proliferation in erythrocyte-based infection assay; type: functional, organism-based; conditions: Plasmodium falciparum, W2; read-out: EC50
[2] = test system: Plasmodium falciparum; experiment: NOVARTIS: Inhibition of Plasmodium falciparum 3D7 (drug-susceptible) proliferation in erythrocyte-based infection assay; type: functional, organism-based; conditions: Plasmodium falciparum, 3D7
[3] = NOVARTIS: Cytotoxicity against human hepatocellular carcinoma cell line (Huh7); type: toxicity, cell-based, Huh-7; conditions: Huh7 cells (hepatocellular carcinoma cell line)

Structure (SMILES) | EC50 [1] | EC50 [2] | CC50 [3]
CN1CCN(c2ccc(Nc3c4ccccc4nc4ccccc34)cc2)CC1 | 95.5 nM | 56.7 nM | 6760 nM
CC(=Cc1sc2ccc3occc3c2[n+]1CCO)C=C1Sc2ccc3ccoc3c2N1CCO.CCC(=Cc1sc2ccc3ccccc3c2[n+]1C)C=C1Sc2ccc3ccccc3c2N1C | 144 nM | > 373 nM | > 10000 nM
COc1cc(Nc2cncc(-c3ccncc3)n2)cc(OC)c1OC | 1420 nM | 1080 nM | > 100000 nM
OCCNc1nc(Nc2cccc(O)c2)nc2ccccc12 | 1010 nM | 203 nM | 69400 nM
CC(C)Cc1ccc(C=CC(=O)NC2CC2)cc1 | 1470 nM | 1150 nM | > 100000 nM
COc1ccc(NC(=O)N(CCCNS(=O)(=O)c2ccc([N+](=O)[O-])cc2)c2ccc(Oc3ccccc3)cc2)cc1 | 114 nM | 733 nM | > 7770 nM
CCOC(=O)c1[nH]c2ccc(OC)cc2c1N=NN(C)C | 966 nM | 447 nM | 68600 nM
O=C(c1ccc(Cl)cc1Cl)N1CCCC(C(F)(F)F)C1 (configuration not stated) | 1400 nM | 663 nM | > 100000 nM
Cc1cccc(NC(c2cccc(Cl)c2)c2ccc3cccnc3c2O)n1 (configuration not stated) | 891 nM | 917 nM | > 62400 nM
COc1ccc(NC(=O)N2CCN(C(=O)c3nc(-c4ccccc4)nc(C)c3C(=O)OC(C)C)CC2C)cc1 (configuration not stated) | 141 nM | 633 nM | > 10000 nM
CCCCOc1ccc(C(=O)N(C)CCCNc2ccnc3cc(Cl)ccc23)cc1 | 69 nM | 605 nM | 4790 nM
O=C(NN=Cc1cccc(Cl)c1)C1COc2ccccc2O1 (configuration not stated) | > 144 nM | > 935 nM | > 10000 nM
COc1ccc(C(OCC(=O)N2CCSCC2)c2ccncc2Cl)cc1 (configuration not stated) | 1450 nM | > 12400 nM | > 100000 nM
Cc1nc(-c2nc3c(s2)CN(C(=O)c2ccncc2)CC3)cs1 | 144 nM | 163 nM | > 10000 nM
CC1CCCCN1CC(=O)N1CCN(C(=O)CN2CCCCC2C)CC1.CC=O (configuration not stated) | 60.3 nM | > 1250 nM | > 4250 nM
Cc1noc(C)c1S(=O)(=O)N(Cc1ccccc1)CC(O)CN1CCC(NC(=O)Cc2cccs2)C1 (configuration not stated) | 141 nM | 175 nM | > 10000 nM
CCOC(=O)C1=C(C)N=c2sc(=Cc3cc(Br)ccc3O)c(=O)n2C1c1ccccc1 (configuration not stated) | 1400 nM | 5530 nM | > 100000 nM
CCOC(=O)C1=C(C(=O)OCC)SC(=C2C(=S)C(C)(C)N(C(=O)c3cccc(F)c3)c3cc(C)ccc32)S1 | > 1400 nM | > 7520 nM | > 100000 nM
CN(CCCNc1ccnc2cc(Cl)ccc12)C(=O)c1ccc(Cl)c(Cl)c1 | 122 nM | 36.6 nM | > 8360 nM
N#Cc1c(N)n(CCc2ccc(Cl)cc2Cl)c2nc3ccccc3nc12 | 485 nM | 828 nM | 33400 nM
CCCCC(=O)NC(c1cccc([N+](=O)[O-])c1)c1ccc2cccnc2c1O (configuration not stated) | 267 nM | 376 nM | 18800 nM
CC(C)CN1C(=O)N(CCCc2cccnc2)C(=O)C12CCN(C1CCOCC1)CC2 | 1420 nM | > 12500 nM | > 100000 nM
CCCCNC(=O)NC(Cc1c[nH]c2ccccc12)C(=O)NC1CCCCC1 (configuration not stated) | > 28.3 nM | > 1250 nM | > 2020 nM
CC[n+]1c(/C=C/c2ccc(F)cc2)ccc2ccccc21 | 140 nM | 122 nM | > 10000 nM
CCNC(=S)NC1CC2CCCC(C1)N2CCc1ccccc1 (configuration not stated) | 1390 nM | 1590 nM | > 100000 nM
COc1ccc(C2CC(=O)C3=C(C2)NC(C)=C(C(=O)OC2CCCC2)C3c2cccc(C)c2)cc1OC (configuration not stated) | 208 nM | 300 nM | 14900 nM
CC1CCCN(c2ccc(C(=O)NC3CC3)cc2[N+](=O)[O-])C1 (configuration not stated) | 1460 nM | 559 nM | > 100000 nM

Structure (SMILES) | EC50 [1] | EC50 [2] | CC50 [3]
COc1ccc(C=CC(=O)NC(=O)c2ccccc2O)cc1OC | 1390 nM | 1290 nM | > 100000 nM
CCN(CC)c1ccc(N=Cc2ccccc2[N+](=O)[O-])cc1 | 410 nM | 571 nM | 27700 nM
CCOc1ccc2[nH]c(=O)c(CN(CCN(CC)CC)C(=S)NCCCN(CC)CC)cc2c1 | 1480 nM | 5560 nM | > 100000 nM
CC1CCN(Cc2c(O)ccc3cc(-c4nc5ccccc5s4)c(=O)oc23)CC1 | 1470 nM | > 12500 nM | > 100000 nM
Cc1cccc(-n2ccnc2SCC(=O)Nc2cc(C(F)(F)F)ccc2Cl)c1 | 1470 nM | 541 nM | > 100000 nM
CCC(C(=O)NCCCCNc1ccnc2cc(Cl)ccc12)c1ccccc1 (configuration not stated) | 168 nM | 288 nM | 11500 nM
CC(C)(C)NC(=O)C(C1CC1)N1C(=O)c2cc(O)ccc2NC(=O)[C@@H]1CCCCN (some centres not stated) | 139 nM | > 1250 nM | > 10000 nM
Cc1ccc(-c2cc(C(F)(F)F)n3ncc(C(=O)Nc4cc(Cl)ccc4O)c3n2)cc1 | 1430 nM | 1880 nM | > 100000 nM
O=C(Nc1ccc([N+](=O)[O-])cc1Cl)c1cc(Br)ccc1O | 798 nM | > 12500 nM | 55600 nM
O=C(Nc1ccc(Oc2cccnc2)cc1)C1CCN(Cc2ccc3nonc3c2)CC1 | 1420 nM | 1130 nM | > 100000 nM
COc1cc2c(cc1OC)C(COc1ccc(F)cc1)N(C(=O)c1ccc(OC(C)C)cc1)CC2 (configuration not stated) | 1400 nM | 155 nM | > 100000 nM
COc1cccc(C(C(=O)NC2CCCCC2)N(C(=O)c2snc(C(N)=O)c2N)c2ccc(C)cc2)c1OC (configuration not stated) | 1400 nM | 3440 nM | > 100000 nM
CCOc1ccc2nc(C)cc(Nc3cccc(O)c3)c2c1 | 289 nM | 201 nM | 19800 nM
Cc1ccc(C(C(=O)NC2CCCCC2)N(C(=O)c2ccc(-c3ccccc3)[nH]2)c2ccc(C3CCCCC3)cc2)o1 (configuration not stated) | 1470 nM | 1160 nM | > 100000 nM
BrC(Br)(Br)c1ncc(-c2ccccc2)cn1 | 143 nM | 43.3 nM | > 10000 nM
COc1ccc(CNC2CCN(c3cccc(NC(=O)C4CC4)c3)CC2)cc1 | 948 nM | 2950 nM | 65100 nM
Cc1nc(-c2cnccc2C(F)(F)F)sc1C(=O)NN | 1390 nM | > 11000 nM | > 100000 nM
COc1ccc(C(=O)C2CC2c2ccc(Cl)cc2)cc1 (configuration not stated) | 1420 nM | 217 nM | > 100000 nM
Cc1sc2ncnc(Nc3ccncc3)c2c1C | > 1450 nM | > 12500 nM | > 100000 nM
COc1ccc(C)cc1-n1c(-c2ccc(Cl)cc2)cc2c1CC(C)(C)CC2=O | > 145 nM | 3.34 nM | > 10000 nM
O=C(COC(c1cccs1)c1cccnc1Cl)N1CCN(C(=O)Nc2ccccc2)CC1 (configuration not stated) | 1420 nM | > 12500 nM | > 100000 nM
CN(CCCNc1ccnc2cc(Cl)ccc12)C(=O)c1cccc(Br)c1 | 137 nM | 59.6 nM | 9590 nM
Cc1cccnc1NC(c1ccc([N+](=O)[O-])cc1)c1ccc2cccnc2c1O (configuration not stated) | 214 nM | 140 nM | 15000 nM
Oc1c2c(nc3cc(-c4ccc(-c5ccccc5)cc4)nn13)CCCC2 | 1020 nM | 1140 nM | > 73800 nM
Cc1ccn2c(NC(C)(C)CC(C)(C)C)c(-c3ccccc3OS(=O)(=O)CC34CCC(CC3=O)C4(C)C)nc2c1 (configuration not stated) | 147 nM | 1360 nM | > 10000 nM
Cc1cn2c3ccccc3n(CCN3CCCC3)c2n1 | 889 nM | 995 nM | 60500 nM
CCOC(=O)c1c(C)oc2c1C(=O)c1ccccc1C2=O | 710 nM | 1960 nM | 49300 nM
